This assay deals with cytochrome c. Format: cell-based, mouse.
[1] abbreviates: composite Z-score vs mock-treated (DMSO) wells, concentration of each compound in μM.

The structures appear in SMILES notation. “And” between values parts separate entries of the source, which are not always exact repeats. Equal values may be shown once. Read-outs that look alike come from different tables or passages of the source. Where a SMILES comes first, the peptide text is derived from it.

`NCC(CC(=O)O)c1ccc(Cl)s1` (centres unmarked) [4-amino-3-(5-chlorothien-2-yl)butanoic acid] had a cyt c under setting [1] of 0.593. On the same count and under the same terms, under `NC(=O)c1cc[n+](CC2=C(C(=O)O)N3C(=O)[C@@H](NC(=O)[C@@H](c4ccccc4)S(=O)(=O)[O-])[C@H]3SC2)cc1` [cefsulodin] stands −1.078. `COc1ccc(-c2cc(=O)c3c(OC)c(OC)c(OC)c(OC)c3o2)cc1OC` [nobiletin] had a cyt c of 0.396.

The molecule `O=C1CC2(CCCC2)CC(=O)N1CCCCN1CCN(c2ncccn2)CC1` [buspirone] displayed a cyt c of 0.228. Same read-out and setting: as for `O=c1[nH]c2ccccc2n1CCCN1CCC(n2c(=O)[nH]c3cc(Cl)ccc32)CC1` [domperidone], the figure is 0.276. `NCCCCCC(=O)O` [6-aminocaproic acid]: the “cyt c (composite Z-score vs DMSO mock-treated wells)” value is on record as −0.680. Turning to `CO[C@H]1/C=C/O[C@@]2(C)Oc3c(C)c(O)c4c(O)c(c(/C=N/N5CCN(C)CC5)c(O)c4c3C2=O)NC(=O)/C(C)=C\C=C\[C@H](C)[C@H](O)[C@@H](C)[C@@H](O)[C@@H](C)[C@H](OC(C)=O)[C@@H]1C` [rifampicin], the cyt c is given as 0.319. Under setting [1], `CC(C)=CCC[C@@H](C)[C@H]1CC[C@@]2(C)C3=C(CC[C@]12C)[C@@]1(C)CC[C@H](O)C(C)(C)[C@@H]1CC3` [lanosterol] had a cyt c of 0.383.

In turn, `COc1ccc(CC2c3cc(OC)c(OC)cc3CC[N+]2(C)CCC(=O)OCCCCCOC(=O)CC[N+]2(C)CCc3cc(OC)c(OC)cc3C2Cc2ccc(OC)c(OC)c2)cc1OC` (centres unmarked) [atracurium] yielded a cyt c under setting [1] of 1.176. As to `O=c1ccc2ccc(O)cc2o1` [umbelliferone], the “cyt c (composite Z-score)” value is on record as −0.272. Consider `CCCc1nc2c(C)cc(-c3nc4ccccc4n3C)cc2n1Cc1ccc(-c2ccccc2C(=O)O)cc1` [telmisartan], for which the cyt c under setting [1] is given as −0.044.

`N=C(N)NOCC[C@H](N)C(=O)O` [canavanine] had a cyt c under setting [1] of −0.321.

In the case of `O=C(OCc1ccccc1)c1ccccc1` [benzyl benzoate], the “cyt c (composite Z-score vs DMSO)” value is listed as 0.394. Take `COc1cc(N)c(Cl)cc1C(=O)NC1CCN(CCCOc2ccc(F)cc2)CC1OC` (centres unmarked) [cisapride]: the cyt c (normalized score (composite Z-score vs DMSO mock-treated wells), compound concentration (μM)) is on record as −0.495. The molecule `Cc1cc(O)c(C=O)c2c1C(=O)Oc1c(COC(=O)/C=C/C(=O)O)c(O)c(C(=O)O)c(C)c1O2` [fumarprotocetraric acid] showed a cyt c under setting [1] of 0.505. On to `O=C(NCC(O)CO)c1c(I)c(C(=O)NCC(O)CO)c(I)c(N(CCO)C(=O)CO)c1I` (centres unmarked) [ioversol], for which the cyt c is 0.129. For the molecule `Nc1c2c(nc3ccccc13)CCCC2` [9-amino-1,2,3,4-tetrahydroacridine], the “cyt c (composite Z-score vs DMSO)” value was 0.967. Consider `C[C@@H](O)[C@H]1C(=O)N2C(C(=O)O)=C(SCCN=CN)C[C@H]12` [imipenem], for which the cyt c is −0.330.

For the molecule `C[C@H]1[C@H](C)CC[C@]2(C(=O)O)CC[C@]3(C)C(=CC[C@@H]4[C@@]5(C)C[C@@H](O)[C@H](O)[C@@](C)(CO)[C@@H]5[C@H](O)C[C@]43C)[C@H]12` [madecassic acid], under setting [1], the cyt c is recorded as 0.241. `C=CCN1CC[C@]23c4c5ccc(O)c4O[C@H]2C(=O)CC[C@@]3(O)[C@H]1C5` [naloxone]: the cyt c was 0.362 and 0.610. In the case of `CCN(CC)CCOc1ccc(C(=C(Cl)c2ccccc2)c2ccccc2)cc1` [clomiphene], the cyt c amounted to 0.699 and the “cyt c (composite Z-score vs DMSO mock-treated wells)” value is 0.025. On to `CC(C)(O/N=C(\C(=O)N[C@@H]1C(=O)N2C(C(=O)[O-])=C(C[n+]3ccccc3)CS[C@H]12)c1csc(N)n1)C(=O)O` [ceftazidime], for which the cyt c under setting [1] was 0.740.

`CC(=O)N[C@@H](CC(=O)O)C(=O)N[C@@H](CCC(=O)O)C(=O)O` [N-acetylaspartylglutamic acid] (Ac-Asp-Glu-OH): the cyt c under setting [1] is given as 0.480. On the same count and under the same terms, under `C=C[C@H]1CN2CC[C@H]1C[C@H]2[C@H](O)c1ccnc2ccccc12` [cinchonidine] stands −0.164. Regarding `Nc1c2c(nc3ccccc13)CCCC2` [tacrine], the “cyt c (composite Z-score vs DMSO)” value was −0.250. Regarding `CN1CCN(CC/C=C2/c3ccccc3Sc3ccc(S(=O)(=O)N(C)C)cc32)CC1` [thiothixene], the cyt c came out at 0.307. The same measure, in the same setting: as for `CN1[C@@H]2CC[C@H]1C[C@@H](OC(=O)C(CO)c1ccccc1)C2` (some centres unmarked) [atropine], the figure is 1.709.

As for `COc1cc(OC)c2c(=O)c(-c3ccc4c(c3)OCO4)coc2c1` [derrustone], the cyt c under setting [1] is on record as 0.470. Same read-out and setting: under `CC[C@H]1OC(=O)[C@H](C)C(=O)[C@H](C)[C@@H](O[C@@H]2O[C@H](C)C[C@H](N(C)C)[C@H]2O)[C@](C)(OC)C[C@@H](C)C(=O)[C@H](C)[C@H]2N(CCCCn3cnc(-c4cccnc4)c3)C(=O)O[C@]12C` [telithromycin] stands −0.023. In turn, `COCCCC/C(=N\OCCN)c1ccc(C(F)(F)F)cc1` [fluvoxamine] came in with a cyt c of 0.483. `CC(C)[C@H](N)C(=O)N[C@@H](Cc1c[nH]c2ccccc12)C(=O)O` [valyltryptophan] (H-Val-Trp-OH) displayed a cyt c under setting [1] of −0.626. For the molecule `CN1CCN2c3ccccc3Cc3ccccc3C2C1` (centres unmarked) [mianserin], the cyt c amounted to 0.027.

`O=C1C(O)=C([C@H]2CC[C@H](c3ccc(Cl)cc3)CC2)C(=O)c2ccccc21` [atovaquone]: under setting [1], the cyt c is −0.124. As for `O=C(CCCN1CC=C(n2c(=O)[nH]c3ccccc32)CC1)c1ccc(F)cc1` [droperidol], the “cyt c (composite Z-score vs DMSO)” value is 0.270 and 0.161.

As to `O=c1[nH]cnc2nc[nH]c12` [hypoxanthine], the cyt c was 0.608.

`COc1cc(C2Oc3cc([C@H]4Oc5cc(O)cc(O)c5C(=O)[C@@H]4O)ccc3OC2CO)ccc1O` (some centres unmarked) [silybin] returned a cyt c of 0.150. With `O=C1NS(=O)(=O)c2ccccc21` [saccharin], the “cyt c (composite Z-score vs DMSO)” value came to 0.336. The molecule `COc1ccc(CCC(=O)c2c(O)cc(O[C@@H]3O[C@H](CO)[C@@H](O)[C@H](O)[C@H]3O[C@@H]3O[C@@H](C)[C@H](O)[C@@H](O)[C@H]3O)cc2O)cc1O` [neohesperidin dihydrochalcone] registered a cyt c of 0.454.

`Cc1cnc(C(=O)NCCc2ccc(S(=O)(=O)NC(=O)NC3CCCCC3)cc2)cn1` [glipizide]: the “cyt c (composite Z-score vs DMSO)” value was found to be 0.287. Regarding `COc1ccc(-c2ccc(=N)n(CCCC(=O)O)n2)cc1` [gabazine], the cyt c was −0.094. In the case of `CCCc1cc(=O)[nH]c(=S)[nH]1` [propylthiouracil], the cyt c is 0.762 and 0.717. As to `CC(=O)Nc1ccccc1` [acetanilide], the “cyt c (composite Z-score vs DMSO)” value is 0.532. With `CNc1ccccc1C(=O)O` [N-methylanthranilic acid], the cyt c was determined as 0.299.

Turning to `CC(C)(C(=O)O)c1ccc(C(O)CCCN2CCC(C(O)(c3ccccc3)c3ccccc3)CC2)cc1` (centres unmarked) [fexofenadine], the cyt c was −0.751. Consider `COc1ccc(C(CN(C)C)C2(O)CCCCC2)cc1` (centres unmarked) [venlafaxine], for which the cyt c under setting [1] was found to be 0.627. In the case of `O=C1C[C@@H]2OCC=C3CN4CC[C@]56c7ccccc7N1[C@H]5[C@H]2[C@H]3C[C@H]46` [strychnine], the “cyt c (composite Z-score vs DMSO mock-treated wells)” value came out at 0.031. As for `CCC(=O)c1ccc2c(c1)N(CC(C)N(C)C)c1ccccc1S2` (centres unmarked) [propiomazine], the cyt c is on record as −0.368. For `CCOC(=O)C1=C(C)NC(C)=C(C(=O)OC)C1c1cccc(Cl)c1Cl` (centres unmarked) [felodipine], the cyt c under setting [1] is listed as −0.956. As to `Clc1ccccc1CN1CCc2sccc2C1` [ticlopidine], the “cyt c (composite Z-score vs DMSO)” value is −0.316. Take `CC(C)NCC(O)c1ccc(NS(C)(=O)=O)cc1` (centres unmarked) [sotalol]: the cyt c under setting [1] is given as 0.501.

Take `CN1[C@@H]2CC[C@H]1C[C@@H](OC(=O)[C@H](CO)c1ccccc1)C2` [hyoscyamine]: the cyt c was 0.319 and the “cyt c (composite Z-score vs DMSO mock-treated wells)” value came out at 0.235. Turning to `CCN(CC)CC#CCOC(=O)C(O)(c1ccccc1)C1CCCCC1` (centres unmarked) [oxybutynin], the cyt c was −0.352. Under setting [1], `COC(=O)Nc1nc2ccc([S+]([O-])c3ccccc3)cc2[nH]1` (centres unmarked) [oxfendazole, reference compound] gave a cyt c of −0.224.

With `O=C(O)COCCN1CCN(C(c2ccccc2)c2ccc(Cl)cc2)CC1` (centres unmarked) [cetirizine], the cyt c turned out to be 0.507.

On to `NCCCC[C@H](N)C(=O)N[C@@H](Cc1ccccc1)C(=O)N[C@@H](Cc1ccc(O)cc1)C(=O)O` [lysylphenylalanyltyrosine] (H-Lys-Phe-Tyr-OH), for which the cyt c under setting [1] is 0.240. On the same count and under the same terms, under `CCCCCCCC/C=C/CCCCCCCCOP(=O)([O-])OCC[N+](C)(C)C` [elaidylphosphocholine] stands −0.840. On to `CCC1(c2ccccc2)C(=O)NCNC1=O` [primidone], for which the cyt c is 0.296 and 0.193. Under setting [1], `COc1ccc(-c2cc(C(F)F)nn2-c2ccc(S(N)(=O)=O)cc2)cc1F` [deracoxib] yielded a cyt c of 0.350. Turning to `Cc1ncc(C[n+]2csc(CCO)c2C)c(N)n1` [thiamine], the “cyt c (composite Z-score)” value is given as 0.284. With `N[C@@H](Cc1c[nH]cn1)C(=O)Nc1ccc2ccccc2c1` [N-histidyl-2-aminonaphthalene], the cyt c under setting [1] was 0.214. As for `C[C@@H]1O[C@@H](OC[C@H]2O[C@@H](Oc3c(-c4ccc(O)c(O)c4)oc4cc(O)cc(O)c4c3=O)[C@H](O)[C@@H](O)[C@@H]2O)[C@H](O)[C@H](O)[C@H]1O` [rutoside], the cyt c under setting [1] was −0.012. `CC(C)(C)C(=O)C(Oc1ccc(Cl)cc1)n1cncn1` (centres unmarked) [triadimefon] gave a cyt c of 0.286.

The molecule `C[C@@H]1O[C@@H](OC[C@H]2O[C@@H](Oc3c(-c4ccc(OCCO)c(OCCO)c4)oc4cc(OCCO)cc(O)c4c3=O)[C@H](O)[C@@H](O)[C@@H]2O)[C@H](O)[C@H](O)[C@H]1O` [troxerutin] registered a cyt c under setting [1] of −0.673.

For `C[C@]12CCC(=O)C=C1C=C[C@@H]1[C@@H]2CC[C@@]2(C)[C@H]1CC[C@@]21CCC(=O)O1` [canrenone], the cyt c under setting [1] is 0.816. The molecule `O=C(OCCOCCO)c1ccccc1Nc1cccc(C(F)(F)F)c1` [etofenamate] had a cyt c of −0.030. The molecule `CCC(NC(C)C)C(O)c1ccc(O)c2[nH]c(=O)ccc12` (centres unmarked) [procaterol] came in with a cyt c under setting [1] of −0.168.

The record behind these values is US20090143279A1 (priority 2007, published 2009).
